Numbers after ± are expanded uncertainties.
Conditions: 101.33 kPa, Liquid

Row | Structure (SMILES) | mass density (298.15 K) [kg/m3] | mass density (308.15 K) [kg/m3]
1 | CC(=O)N(C)C [N,N-dimethylethanamide] | 937 ± 0.4 | 926.9 ± 0.4
2 | CN(C)C=O [dimethylformamide] | 943.8 ± 0.4 | 934.2 ± 0.4

From the NIST ThermoML archive (doi:10.1021/je700339f)
